Several values for one entry are separate records, joined by “and”; a condition that tells them apart may be missing. Equal entries are not always repeated. Inconclusive results and toxic doses are left out.
Tested on: BDF1 mice, P388 leukemia ip, median survival T/C
Assay: NCI In Vivo Anticancer Drug Screen. Data for tumor model P388 Leukemia (intraperitoneal) in B6D2F1 (BDF1) mice
Details: endpoint: median survival time, higher = longer survival
How it was run: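 In tumour-bearing mice, survival after compound treatment is set against the vehicle group and given as a quotient.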

[1] = dose: 50.0 mg/kg/injection, schedule: Q04DX003 (ip), vehicle: saline with Tween-80
[2] = dose: 25.0 mg/kg/injection, schedule: Q01DX009 (ip), vehicle: saline with Tween-80
[3] = dose: 50.0 mg/kg/injection, schedule: Q01DX009 (ip), vehicle: saline with Tween-80
[4] = dose: 100.0 mg/kg/injection, schedule: Q01DX009 (ip), vehicle: saline with Tween-80
[5] = dose: 100.0 mg/kg/injection, schedule: Q04DX003 (ip), vehicle: saline with Tween-80
[6] = dose: 200.0 mg/kg/injection, schedule: Q04DX003 (ip), vehicle: saline with Tween-80
[7] = dose: 400.0 mg/kg/injection, schedule: Q04DX003 (ip), vehicle: saline with Tween-80
[8] = dose: 200.0 mg/kg/injection, schedule: Q01DX009 (ip), vehicle: saline with Tween-80
[9] = dose: 400.0 mg/kg/injection, schedule: Q01DX009 (ip), vehicle: saline with Tween-80

**Q.** How did the T/C (dose: 12.5 mg/kg/injection, schedule: Q04DX003 (ip), vehicle: saline with Tween-80) turn out when `CCCCN1CCC2(CC1)COCc1ccccc12` was run?
**A.** 104 % of control

**Q.** And the T/C (dose: 25.0 mg/kg/injection, schedule: Q04DX003 (ip), vehicle: saline with Tween-80)?
**A.** 98 % of control

**Q.** What about the T/C [1] of the same compound?
**A.** 95 % of control

**Q.** What does the source list for `COC(=O)[CH](C[N+](=O)[O-])[Hg][Cl]` (stereo not given)?
**A.** T/C (dose: 1.56 mg/kg/injection, schedule: Q01DX009 (ip), vehicle: Klucel (hydroxypropylcellulose) (HPC)): 104 % of control; T/C (dose: 2.32 mg/kg/injection, schedule: Q04DX003 (ip), vehicle: Klucel (hydroxypropylcellulose) (HPC)): 104 % of control; T/C (dose: 3.12 mg/kg/injection, schedule: Q01DX009 (ip), vehicle: Klucel (hydroxypropylcellulose) (HPC)): 113 % of control; T/C (dose: 4.65 mg/kg/injection, schedule: Q04DX003 (ip), vehicle: Klucel (hydroxypropylcellulose) (HPC)): 113 % of control

**Q.** With `O=[As]O` as the compound, how does the T/C (dose: 2.0 mg/kg/injection, schedule: Q01DX009 (ip), vehicle: saline) read?
**A.** 115 % of control

**Q.** What about the T/C (dose: 4.0 mg/kg/injection, schedule: Q01DX009 (ip), vehicle: saline) of the same compound?
**A.** 123 % of control

**Q.** And the T/C (dose: 8.0 mg/kg/injection, schedule: Q01DX009 (ip), vehicle: saline)?
**A.** 150 % of control

**Q.** Which results are given for `COc1ccccc1N1CCN(CC(O)COc2ccccc2C(C)=O)CC1` (stereo not given)?
**A.** T/C [2]: 95 % of control; T/C [3]: 91 % of control; T/C [4]: 112 % of control

**Q.** For `Cc1ccc(CNCC(=O)O)cc1`, which T/C (dose: 100.0 mg/kg/injection, schedule: Q04DX003 (ip), vehicle: water) is on record?
**A.** 99 % of control

**Q.** And the T/C (dose: 200.0 mg/kg/injection, schedule: Q04DX003 (ip), vehicle: water)?
**A.** 102 % of control

**Q.** What about the T/C (dose: 400.0 mg/kg/injection, schedule: Q04DX003 (ip), vehicle: water) of the same compound?
**A.** 90 % of control

**Q.** What does the source list for `Nc1ncc(C2OC(CO)C(O)C2O)c(=O)[nH]1` (stereo not given)?
**A.** T/C (dose: 16.0 mg/kg/injection, schedule: Q01DX005 (ip), vehicle: saline): 123 % of control; T/C (dose: 128.0 mg/kg/injection, schedule: Q01DX005 (ip), vehicle: saline): 150 % of control

**Q.** Which results are given for `O=CNNc1ccc([N+](=O)[O-])cc1`?
**A.** T/C (dose: 100.0 mg/kg/injection, schedule: Q01DX009 (ip), vehicle: Klucel (hydroxypropylcellulose) (HPC)): 90 % of control; T/C (dose: 100.0 mg/kg/injection, schedule: Q04DX003 (ip), vehicle: Klucel (hydroxypropylcellulose) (HPC)): 105 % of control; T/C (dose: 200.0 mg/kg/injection, schedule: Q01DX009 (ip), vehicle: Klucel (hydroxypropylcellulose) (HPC)): 100 % of control; T/C (dose: 200.0 mg/kg/injection, schedule: Q04DX003 (ip), vehicle: Klucel (hydroxypropylcellulose) (HPC)): 100 % of control; T/C (dose: 400.0 mg/kg/injection, schedule: Q01DX009 (ip), vehicle: Klucel (hydroxypropylcellulose) (HPC)): 104 % of control; T/C (dose: 400.0 mg/kg/injection, schedule: Q04DX003 (ip), vehicle: Klucel (hydroxypropylcellulose) (HPC)): 105 % of control

**Q.** What does the source list for `O=C1NC(c2ccccc2)(c2ccccc2)C(=O)N1CCN(CCCl)CCCl`?
**A.** T/C (dose: 6.1 mg/kg/injection, schedule: Q04DX003 (ip), vehicle: saline with Tween-80): 100 % of control; T/C (dose: 14.0 mg/kg/injection, schedule: Q04DX003 (ip), vehicle: saline): 150 % of control; T/C (dose: 21.0 mg/kg/injection, schedule: Q04DX003 (ip), vehicle: saline): 190 % of control; T/C (dose: 33.0 mg/kg/injection, schedule: Q04DX003 (ip), vehicle: saline with Tween-80): 154 % of control and 168 % of control; T/C [1]: 181 % of control and 200 % of control

**Q.** Which results are given for `CC(C)CCC(=O)C(C)C`?
**A.** T/C [5]: 91 % of control; T/C [6]: 100 % of control; T/C [7]: 95 % of control

**Q.** What does the source list for `NC(Cc1ccc(O)cc1)C(=O)O` (stereo not given)?
**A.** T/C [4]: 100 % of control; T/C [5]: 100 % of control; T/C [8]: 92 % of control; T/C [6]: 91 % of control; T/C [7]: 95 % of control

**Q.** What does the source list for `CC(=O)NC1CC(=O)N(c2ccccc2)C1` (stereo not given)?
**A.** T/C (dose: 87.5 mg/kg/injection, schedule: Q01DX009 (ip), vehicle: saline with Tween-80): 102 % of control; T/C (dose: 175.0 mg/kg/injection, schedule: Q01DX009 (ip), vehicle: saline with Tween-80): 111 % of control; T/C (dose: 350.0 mg/kg/injection, schedule: Q01DX009 (ip), vehicle: saline with Tween-80): 100 % of control

**Q.** For `Clc1ccc(C2c3ccccc3C[n+]3ccccc32)cc1` (stereo not given), which T/C (dose: 8.75 mg/kg/injection, schedule: Q01DX009 (ip), vehicle: Klucel (hydroxypropylcellulose) (HPC)) is on record?
**A.** 113 % of control

**Q.** What about the T/C (dose: 12.5 mg/kg/injection, schedule: Q04DX003 (ip), vehicle: Klucel (hydroxypropylcellulose) (HPC)) of the same compound?
**A.** 95 % of control

**Q.** What about the T/C (dose: 17.5 mg/kg/injection, schedule: Q01DX009 (ip), vehicle: Klucel (hydroxypropylcellulose) (HPC)) of the same compound?
**A.** 109 % of control

**Q.** And the T/C (dose: 25.0 mg/kg/injection, schedule: Q04DX003 (ip), vehicle: Klucel (hydroxypropylcellulose) (HPC))?
**A.** 91 % of control

**Q.** Which T/C [8] does the source give for `COc1cc2c(c(OC)c1OC)C(=O)/C(=C\c1ccccc1)O2` here?
**A.** 96 % of control

**Q.** Which T/C (dose: 100.0 mg/kg/injection, schedule: Q04DX003 (ip), vehicle: saline sonified) does the source give for `CC1(C)c2ccccc2C2C1C1(Cl)C(=O)C2(Cl)C(Cl)=C1Cl` (stereo not given) here?
**A.** 100 % of control

**Q.** What about the T/C (dose: 200.0 mg/kg/injection, schedule: Q04DX003 (ip), vehicle: saline sonified) of the same compound?
**A.** 95 % of control

**Q.** What about the T/C (dose: 400.0 mg/kg/injection, schedule: Q04DX003 (ip), vehicle: saline sonified) of the same compound?
**A.** 100 % of control

**Q.** With `OC1CC2c3ccccc3C1c1cccc[n+]12` (stereo not given) as the compound, how does the T/C (dose: 12.5 mg/kg/injection, schedule: Q01DX009 (ip), vehicle: Klucel (hydroxypropylcellulose) (HPC)) read?
**A.** 87 % of control and 91 % of control

**Q.** And the T/C (dose: 25.0 mg/kg/injection, schedule: Q01DX009 (ip), vehicle: Klucel (hydroxypropylcellulose) (HPC))?
**A.** 104 % of control

**Q.** And the T/C (dose: 50.0 mg/kg/injection, schedule: Q01DX009 (ip), vehicle: Klucel (hydroxypropylcellulose) (HPC))?
**A.** 91 % of control and 100 % of control

**Q.** What about the T/C (dose: 56.25 mg/kg/injection, schedule: Q04DX003 (ip), vehicle: Klucel (hydroxypropylcellulose) (HPC)) of the same compound?
**A.** 100 % of control

**Q.** And the T/C (dose: 75.0 mg/kg/injection, schedule: Q01DX009 (ip), vehicle: Klucel (hydroxypropylcellulose) (HPC))?
**A.** 100 % of control

**Q.** What about the T/C (dose: 112.5 mg/kg/injection, schedule: Q04DX003 (ip), vehicle: Klucel (hydroxypropylcellulose) (HPC)) of the same compound?
**A.** 108 % of control

**Q.** What does the source list for `Cc1cc(NCCN(C(C)C)C(C)C)nc(/N=C(\N)Nc2ccc(Cl)c(C(F)(F)F)c2)n1`?
**A.** T/C (dose: 3.8 mg/kg/injection, schedule: Q04DX003 (ip), vehicle: Klucel (hydroxypropylcellulose) (HPC)): 104 % of control; T/C (dose: 4.68 mg/kg/injection, schedule: Q01DX009 (ip), vehicle: Klucel (hydroxypropylcellulose) (HPC)): 95 % of control; T/C (dose: 5.8 mg/kg/injection, schedule: Q04DX003 (ip), vehicle: Klucel (hydroxypropylcellulose) (HPC)): 95 % of control; T/C (dose: 9.37 mg/kg/injection, schedule: Q01DX009 (ip), vehicle: Klucel (hydroxypropylcellulose) (HPC)): 100 % of control; T/C (dose: 18.75 mg/kg/injection, schedule: Q01DX009 (ip), vehicle: Klucel (hydroxypropylcellulose) (HPC)): 104 % of control; T/C (dose: 20.0 mg/kg/injection, schedule: Q04DX003 (ip), vehicle: Klucel (hydroxypropylcellulose) (HPC)): 116 % of control; T/C (dose: 26.0 mg/kg/injection, schedule: Q01DX009 (ip), vehicle: Klucel (hydroxypropylcellulose) (HPC)): 95 % of control; T/C (dose: 26.0 mg/kg/injection, schedule: Q04DX003 (ip), vehicle: Klucel (hydroxypropylcellulose) (HPC)): 106 % of control; T/C (dose: 40.0 mg/kg/injection, schedule: Q04DX003 (ip), vehicle: Klucel (hydroxypropylcellulose) (HPC)): 106 % of control and 116 % of control; T/C (dose: 60.0 mg/kg/injection, schedule: Q04DX003 (ip), vehicle: Klucel (hydroxypropylcellulose) (HPC)): 123 % of control

**Q.** How did the T/C (dose: 25.0 mg/kg/injection, schedule: Q01DX001 (ip), vehicle: saline sonified) turn out when `CC(C)N1CCC(=O)NC1=O` was run?
**A.** 104 % of control

**Q.** What about the T/C (dose: 50.0 mg/kg/injection, schedule: Q01DX001 (ip), vehicle: saline sonified) of the same compound?
**A.** 104 % of control

**Q.** And the T/C (dose: 100.0 mg/kg/injection, schedule: Q01DX001 (ip), vehicle: saline sonified)?
**A.** 100 % of control

**Q.** With `O=c1cc(O)ccn1CCc1cccs1` as the compound, how does the T/C (dose: 12.5 mg/kg/injection, schedule: Q01DX009 (ip), vehicle: saline with Tween-80) read?
**A.** 109 % of control

**Q.** And the T/C [2]?
**A.** 109 % of control

**Q.** And the T/C [3]?
**A.** 121 % of control

**Q.** What about the T/C [4] of the same compound?
**A.** 105 % of control

**Q.** And the T/C [5]?
**A.** 114 % of control

**Q.** What about the T/C [8] of the same compound?
**A.** 112 % of control

**Q.** And the T/C [6]?
**A.** 110 % of control

**Q.** What about the T/C [9] of the same compound?
**A.** 110 % of control

**Q.** What about the T/C [7] of the same compound?
**A.** 119 % of control

**Q.** How did the T/C [3] turn out when `CC(C)(C)c1ccc(Sc2cccc3c2C(=O)c2ccccc2C3)cc1` was run?
**A.** 92 % of control

**Q.** And the T/C [4]?
**A.** 89 % of control

**Q.** What about the T/C [8] of the same compound?
**A.** 89 % of control

**Q.** With `CCOC(=O)Nc1cc(NC/C(=N/O)c2ccc(OC)cc2)c([N+](=O)[O-])c(N)n1` as the compound, how does the T/C (dose: 12.5 mg/kg/injection, schedule: Q01DX001 (ip), vehicle: Klucel (hydroxypropylcellulose) (HPC)) read?
**A.** 93 % of control

**Q.** What about the T/C (dose: 25.0 mg/kg/injection, schedule: Q01DX001 (ip), vehicle: Klucel (hydroxypropylcellulose) (HPC)) of the same compound?
**A.** 93 % of control

**Q.** What about the T/C (dose: 50.0 mg/kg/injection, schedule: Q01DX001 (ip), vehicle: Klucel (hydroxypropylcellulose) (HPC)) of the same compound?
**A.** 93 % of control

**Q.** What does the source list for `ClCCN=Cc1ccc(Cl)cc1`?
**A.** T/C [4]: 116 % of control; T/C [8]: 111 % of control; T/C [9]: 120 % of control

— PubChem BioAssay AID328 (DTP/NCI, 2004)
